We go through three compounds from paper PMC10987949, “Inhibition of HIV-1 release by ADAM metalloproteinase inhibitors” (Frontiers in Microbiology, 2024).

By Ki is commonly meant a measure of affinity in units of concentration, obtained from inhibition or displacement.

Experiment [1] has as its target T1, recombinant ADAM17 (Homo sapiens, UniProt P78536).
T1 construct: purchased R&D systems, Inc
Briefly: Kinetic cleavage of fluorogenic TNF-α peptide ES003 by recombinant ADAM17. Format: biochemical. Particulars: for Ki: ES003 substrate, 4-h time point, non-linear regression, read-out: Inhibition constant Ki ADAM17. The text has this: A fluorescence based enzymatic assay was used to measure the cleavage of fluorogenic TNF-α and L-selectin (CD62L) peptides by either recombinant ADAMs or PBMC from healthy donors. The fluorogenic substrate, synthesized by Biomatik^3, was a Dabcyl (4-(4-dimethylaminophenylazo)benzoyl)- and Edans (5-[(2-aminoethyl)amino]naphthalene-1-sulfonic acid)- conjugated 12 amino acid peptide: Dabcyl-[…]-Edans that corresponds to the extracellular membrane proximal region of CD62L. […] The cleavage was measured in a kinetic assay every 3 min for 4 h in black 96-well plates using a Synergy_h1 fluorescent plate reader (BioTek) with 340 nm excitation and 490 nm emission wavelengths. […] PBMC were stimulated with anti-CD3 antibody for 2–4 days as described above.
96-well plate with data recorded every 3 minutes for 4 hours using a Synergy_h1 fluorescent plate reader. Each enzymatic reaction contained 50 -200 ng
Figure 2B and 2C bar diagrams are generated using the
data points at 4 hour time point of the enzymatic cleavages.

The subject of experiment [2] is HIV-1. Briefly: Ex vivo HIV-1 release from CD4 T cells of HIV-1 infected individuals. It counts as cell-based. To be noted: 50 μM; for effect on viral release (virion-associated HIV RNA): CD4 T cells from six HIV-1 infected individuals, day 2 and 4. The procedure:
PBMCs were collected from the study subjects in accordance with a clinical protocol approved by the Institutional Review Board of the National Institute of Allergy and Infectious Diseases, National Institutes of Health under protocol #02-I-0202. CD4^+ T cells were isolated from the PBMCs using a human CD4 T cell separation system (StemCell Technologies, Catalog 19052) and were cultured with medium alone or with plate-bound anti-CD3 and soluble anti-CD28 antibody in the absence or presence of 50 μM of indicated compounds for 48 h. The copy number of cell-free viron-associated HIV RNA in the culture supernatants was quantified using the Cobas Ampliprep/Cobas Taqman HIV-1 Test, Version 2.0 (Roche Diagnostics) with droplet digital PCR (ddPCR, BIO-RAD) on day 2 and 4 of stimulation.

Experiment [3] relates to CD4 T cells. Kind of experiment: RNA sequencing of CD4 T cells, pathway gene expression. It counts as cell-based, human. To be noted: compound alone. The procedure: CD4+ T cells were enriched from PBMC using EasySep™ human CD4 T cell enrichment kit ([…] Technologies Inc., MA 02142). To prepare samples for RNA sequencing, 5-10×10^6 PBMC or CD4+ T cells from either infected or uninfected samples were lysed for RNA isolation using RNeasy mini kit from QIAGEN. Samples of 2–10 μg RNA with concentration > 25 ng/μl and OD260/280 > 2.0 were used for cDNA library preparation of 250–300 base pair fragments in length, and high throughput sequencing using Illumina Miseq platform by Novogene (Novogene Corp Inc., CA 91914). A total of ~20×10^6 reads were recorded for each sample (Table 3). The mapping and assembly of raw sequencing reads, statistical and preliminary bioinformatic analyses were performed by Novogene. Subsequent gene expression analyses were performed based on expected Fragments Per Kilobase of transcript sequence per Millions base pairs sequenced (FPKM) using sequences of 20 reads or higher. All differential gene expression analyses were done between infected samples in the presence or absence of treatment and their donor matched uninfected controls. […] The RNAseq data is available in GEO database under accession number GSE218175.

Experiment [4] deals with HIV-1LAI. Briefly: TEM of immunogold labeled CD62L on HIV-1LAI infected PBMC. Format: cell-based. How it is done:
For immunogold labeling, ~10^6 cells were washed with 2 mL PBS, gently centrifuged at 250 g for 5 min, resuspended in 100 μL of labeling buffer (PBS with 1% BSA), and incubated with 10 μg of mouse anti-human CD62L (clone FMC46, Thermofisher) for 1 h on ice. After removal of the primary antibody and wash, cells were incubated with 10 μg of secondary goat anti-mouse IgG H&L conjugated to 10 nm gold nanoparticles (Electron Microscopy Sciences) for 1 h on ice, then washed and fixed in 2.5% glutaraldehyde with 0.1 M sodium cacodylate at pH 7.4. Specimens for transmission electron microscopy (TEM) were fixed with 2.5% glutaraldehyde in 0.1 M Sorenson’s buffer. Samples were post-fixed 1 h with 0.5% osmium tetroxide/0.8% potassium ferricyanide, 1 h with 1% tannic acid and overnight with 1% uranyl acetate at 4°C. Samples were dehydrated with a graded ethanol series and embedded in Spurr’s resin. Thin sections were cut with a Leica UCT ultramicrotome (Vienna, Austria) stained with 1% uranyl acetate and Reynold’s lead citrate prior to viewing at 80 kV on a Hitachi 7500 transmission electron microscope (Hitachi-High Technologies, Tokyo, Japan). Approximately 100 images were acquired with an AMT digital camera system (AMT, Chazy, NY) from each sample on sections containing HIV virions. HIV virions are identified as ~100 nm sized particles with visible membrane enclosed capsid.

For experiment [5], the system named is TNFα release. Kind of experiment: TNFα release ELISA, stimulated CD4 T cells. To be noted: PHA or anti-CD3 stimulated CD4 T cells. Format: cell-based, human. How it is done: PBMC from de-identified healthy donors were obtained with informed consent from the Department of Transfusion Medicine, National Institutes of Health under Biological reagent Registry RD-14-IX-12 approved by NIH biological safety board. CD8-depleted PBMCs, either stimulated or non-stimulated with 10 μg/mL phytohaemagglutinin (PHA) or anti-CD3 antibody (with or without conjugated beads), were plated at 2×10^6 cells/ml in 48 well plates in RPMI 1640 + 10%FBS (R10) to a final volume of 1 mL in each well. IL-2 was added at a final concentration of 20 U/mL. CD3 antibody okt3 was used at ~0.2 μg/mL final concentration. Compounds were prepared in appropriate solvents according to the manufacturer’s instructions, diluted to working concentrations using RPMI 1640 + 10%FBS (R10), and added to the cell cultures for 6–24 h for CD62L shedding, and 48 h for TNF-α release. Supernatants were collected and assessed using either the CD62L or TNF-α Duo Set ELISA kit according to manufacturer’s instructions (R&D Systems, Inc.). The viability of cells treated with compounds was assessed by acridine orange / propidiom iodide (AO/PI Logosbio catalog F23001) staining using Luna-FL cell counter following the manufacture’s instruction.^2

T1 sequence (P78536 215-824): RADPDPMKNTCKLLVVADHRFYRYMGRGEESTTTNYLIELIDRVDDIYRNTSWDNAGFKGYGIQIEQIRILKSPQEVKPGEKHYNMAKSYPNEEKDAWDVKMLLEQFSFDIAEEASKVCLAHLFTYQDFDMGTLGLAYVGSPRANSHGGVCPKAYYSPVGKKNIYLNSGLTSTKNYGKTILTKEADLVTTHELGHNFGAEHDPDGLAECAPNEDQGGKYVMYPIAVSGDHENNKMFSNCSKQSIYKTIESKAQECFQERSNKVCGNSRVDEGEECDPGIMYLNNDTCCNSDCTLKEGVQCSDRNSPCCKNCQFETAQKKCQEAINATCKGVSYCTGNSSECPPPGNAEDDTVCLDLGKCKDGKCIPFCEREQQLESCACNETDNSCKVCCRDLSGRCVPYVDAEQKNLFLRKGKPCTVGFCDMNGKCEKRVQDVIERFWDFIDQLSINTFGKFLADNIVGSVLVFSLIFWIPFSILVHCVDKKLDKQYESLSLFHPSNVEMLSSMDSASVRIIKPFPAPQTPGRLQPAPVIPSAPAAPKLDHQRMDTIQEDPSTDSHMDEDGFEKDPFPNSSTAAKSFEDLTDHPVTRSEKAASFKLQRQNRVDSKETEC

For `CC1(C)SCCN(S(=O)(=O)c2ccc(Oc3ccncc3)cc2)[C@H]1C(=O)NO` [prinomastat], in experiment [1], the “concentrations inhibiting ADAM17 enzymatic activity” value lay in the range of 20 to 50 nM and the Ki is 0.048 ± 0.036 µM. The “inhibition of ADAM17 cleavage of ES003” value in experiment [1] (2 μM compound) is “inhibited both ADAM10 and 17”. In experiment [2], the “effect on viral release (virion-associated HIV RNA)” value is recorded as “inhibited viral release in a portion of the samples”.

In the case of `CNC(=O)[C@H](Cc1ccccc1)NC(=O)[C@H](CC(C)C)[C@H](CSc1cccs1)C(=O)NO` [BB-94, Batimastat], the “transcription of type I interferon pathway genes” value in experiment [3] (uninfected CD4 T cells) is recorded as “does not suppress the transcription of type I interferon pathway genes”. In experiment [3] (without HIV-1 infection), the “expressions of cell cycle genes” value is “decreased slightly the expressions of cell cycle genes”. For the same compound, in experiment [4] (50 μM, count in TEM images), the “gold particles bound to cell surface virions” value is 63 and the “gold particles bound to released virions” value stood at 17. Moreover, the “fraction of virion-associated gold particles on CD62L-tethered (budding) virions” value in experiment [4] (in presence of compound, DMSO 45%) was determined as 79%. The “fraction of virion-associated gold particles on released virions” value in experiment [4] (in presence of compound, DMSO 55%) worked out at 21%. Further, the “effect on viral release (virion-associated HIV RNA)” value in experiment [2] is given as “inhibited the viral release from all individuals”. In experiment [2] (day 2 and 4 post stimulation), the “reductions in released virion-associated RNA” value is 2–50 fold. The “effect on TNFα release” value in experiment [5] is listed as “inhibited”.

As for `CNC(=O)[C@@H](NC(=O)[C@H](CCCc1ccccc1)[C@H](C)N(O)C=O)C(C)(C)C` [GI254023X], the inhibitory constant (Ki) in experiment [1] amounted to 3.6 ± 0.38 µM.
